Experimental data from patent US8962609B2, “Pyrimidine compounds as inhibitors of protein kinases IKK epsilon and/or TBK-1, processes for their preparation, and pharmaceutical compositions containing them” (Domainex Limited, priority 2010, dated 2015).

Experiments:
IKKε = IKKε (Homo sapiens (Human), UniProt Q14164); experiment: IKKε time-resolved fluorescence Lanthascreen kinase inhibition assay; format: biochemical; conditions: 20 μM ATP (apparent Km), 2 nM kinase, 1 hr; values are activity bands; read-out: Inhibition of IKKε IC50
IKKε, sequence (Q14164 whole entry): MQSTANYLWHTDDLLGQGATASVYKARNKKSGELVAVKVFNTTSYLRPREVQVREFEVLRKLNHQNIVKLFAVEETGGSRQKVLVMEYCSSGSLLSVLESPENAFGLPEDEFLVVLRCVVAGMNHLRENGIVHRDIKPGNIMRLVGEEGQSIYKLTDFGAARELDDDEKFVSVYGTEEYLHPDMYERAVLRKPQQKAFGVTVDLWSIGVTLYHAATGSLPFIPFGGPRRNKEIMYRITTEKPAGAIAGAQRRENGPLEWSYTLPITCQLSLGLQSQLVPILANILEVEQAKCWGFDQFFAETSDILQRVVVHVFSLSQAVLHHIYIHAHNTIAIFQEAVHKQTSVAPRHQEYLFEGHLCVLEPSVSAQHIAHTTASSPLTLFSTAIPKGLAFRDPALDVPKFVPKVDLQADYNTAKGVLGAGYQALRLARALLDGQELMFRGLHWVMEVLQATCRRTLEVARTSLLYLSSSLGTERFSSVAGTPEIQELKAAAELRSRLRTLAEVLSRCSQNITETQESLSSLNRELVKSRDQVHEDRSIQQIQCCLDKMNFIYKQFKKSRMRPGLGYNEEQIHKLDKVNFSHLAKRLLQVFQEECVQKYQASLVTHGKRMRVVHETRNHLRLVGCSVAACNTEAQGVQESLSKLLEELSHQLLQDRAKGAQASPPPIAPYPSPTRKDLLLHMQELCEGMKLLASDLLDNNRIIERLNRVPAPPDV
Description: (§1) Compounds of the invention (synthesised as described below) were tested for activity against the IKKε and TBK-1 enzyme as follows:
(§2) Inhibitions studies were performed using a time-resolved fluorescence-based Lanthascreen™ assay. Phosphorylation of a fluorescein-labelled substrate peptide is measured using terbium-labeled phosphospecific antibodies. Terbium is excited at 340 nm and the FRET energy transfer to fluorescein is measured at 495 and 520 nm. The emission ratio between 520 and 495 is a measure of the level of phosphorylation of the substrate by the kinase.
(§3) Kinase inhibition assays (10 μL) were performed at 20° C. in 384-well plate format. Compound IC50 values were determined at the apparent Km for ATP (20 μM) based on a radiometric assay (Invitrogen) using 8 or 10 point curves in duplicate. The final reaction conditions contained 400 nM fluorescein-IkBα substrate ([…]), 20 μM ATP, 2 nM or 8 nM IKKε or TBK1 kinase respectively, and 3% DMSO in kinase assay buffer consisting of 50 mM HEPES (pH 7.5), 10 mM MgCl, 1 mM EGTA, 0.01% Brij-35.
(§4) Compound dilutions were prepared from 10 mM DMSO stocks by dilution into DMSO.
(§5) The kinase phosphorylation assay was initiated by the addition of the kinase and the reaction was allowed to proceed for 1 hr or 2.5 hr for IKKε and TBK-1 kinase respectively. […] The reaction was stopped by the addition of 10 mM EDTA, and phosphorylation was detected after a 1 hr incubation with 1.5 nM terbium-labelled antibody against phosphorylation at Serine 32 on the IkBα[…]peptide, both in TR-FRET dilution buffer (Invitrogen).
(§6) In the data presented for IKKε, <9 μM means having an activity in the range from 300 nM≦9 μM; and <300 nM means having an activity in the range 30 nM≦300 nM; and for the data presented for TBK-1, <3 μM means having an activity in the range 300 nM≦3 μM, and <300 nM means having an activity in the range 30 nM≦300 nM.

TBK-1 = TBK-1 (Homo sapiens (Human), UniProt Q9UHD2); experiment: biochemical; conditions: 20 μM ATP (apparent Km), 8 nM kinase, 2.5 hr; values are activity bands; read-out: Inhibition of TBK-1 IC50
TBK-1, sequence (Q9UHD2 whole entry): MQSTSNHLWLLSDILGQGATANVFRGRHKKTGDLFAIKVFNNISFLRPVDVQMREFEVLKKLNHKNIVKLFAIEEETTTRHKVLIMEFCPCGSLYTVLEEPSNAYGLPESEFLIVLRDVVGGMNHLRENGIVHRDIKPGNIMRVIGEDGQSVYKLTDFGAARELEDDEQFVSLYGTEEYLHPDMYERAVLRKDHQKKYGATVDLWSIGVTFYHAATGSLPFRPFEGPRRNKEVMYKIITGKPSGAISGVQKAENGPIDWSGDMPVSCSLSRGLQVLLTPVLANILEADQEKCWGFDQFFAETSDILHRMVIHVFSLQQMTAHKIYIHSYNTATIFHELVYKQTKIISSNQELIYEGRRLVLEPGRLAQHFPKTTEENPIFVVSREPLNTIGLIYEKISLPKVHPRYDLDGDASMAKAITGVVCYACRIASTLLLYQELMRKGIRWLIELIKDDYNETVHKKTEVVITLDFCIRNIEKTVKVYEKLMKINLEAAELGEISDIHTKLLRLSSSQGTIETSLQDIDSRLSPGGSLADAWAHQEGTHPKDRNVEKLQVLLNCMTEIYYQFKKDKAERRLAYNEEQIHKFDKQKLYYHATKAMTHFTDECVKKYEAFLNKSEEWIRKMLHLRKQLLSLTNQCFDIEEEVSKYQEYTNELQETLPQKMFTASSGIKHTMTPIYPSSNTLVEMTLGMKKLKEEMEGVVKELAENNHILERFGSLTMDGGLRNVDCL
Description: as §1, §2, §3, §4, §5, §6

Question: With CN(C)CCNC(=O)c1cccc(Nc2nccc(-c3ccc(N4CCCC4)c(C#N)c3)n2)c1 [DMX-45] as the compound, how does the IC50 (IKKε) read?
Answer: The IC50 was less than 30 nM.

Question: What does the source list for N#Cc1cc(-c2ccnc(Nc3ccc4c(c3)NC(=O)CC4)n2)ccc1N1CCCC1 [DMX-17]?
Answer: IC50 (TBK-1): < 30 nM; IC50 (IKKε): < 30 nM

Question: CC(=O)Nc1ccc(Nc2nccc(-c3ccc(N4CCN(C)CC4)c(C#N)c3)n2)cn1 [DMX-47] was tested. Which IC50 (TBK-1) did it give?
Answer: The IC50 was 30 to 300 nM.

Question: And the IC50 (IKKε)?
Answer: The IC50 was 30 to 300 nM.

Question: What does the source list for C[C@H]1CCCN1c1ccc(-c2ccnc(Nc3ccc(NCCN(C)C)nc3)n2)cc1C#N [DMX-63]?
Answer: IC50 (TBK-1): < 30 nM; IC50 (IKKε): < 30 nM

Question: With N#Cc1cc(-c2ccnc(Nc3ncc(C(N)=O)o3)n2)ccc1N1CCCC1 [DMX-38] as the compound, how does the IC50 (IKKε) read?
Answer: Its IC50 is 300 to 9000 nM.

Question: With Cn1cnc(Nc2nccc(-c3ccc(N4CCCC4)c(C#N)c3)n2)c1 [DMX-57] as the compound, how does the IC50 (TBK-1) read?
Answer: Its IC50 is 30 to 300 nM.

Question: And the IC50 (IKKε)?
Answer: Its IC50 is 30 to 300 nM.

Question: Which IC50 (TBK-1) does the source give for Cn1nccc1Nc1nccc(-c2ccc(N3CCC[C@@H]3C(N)=O)c(C#N)c2)n1 [DMX-53] here?
Answer: The IC50 was 300 to 3000 nM.

Question: What about the IC50 (IKKε) of the same compound?
Answer: Its IC50 is 30 to 300 nM.

Question: Which IC50 (IKKε) does the source give for Cn1nc(Nc2nccc(-c3ccc(N4CCCC4)c(C#N)c3)n2)cc1C(N)=O [DMX-40] here?
Answer: The IC50 was 30 to 300 nM.

Question: Which IC50 (TBK-1) does the source give for CO[C@H]1CCN(c2ccc(-c3ccnc(Nc4ccc(NC(C)=O)nc4)n3)cc2C#N)C1 [DMX-76] here?
Answer: Its IC50 is less than 30 nM.

Question: What about the IC50 (IKKε) of the same compound?
Answer: Its IC50 is less than 30 nM.

Question: With Cc1cnc(Nc2nccc(-c3ccc(N4CCCC4)c(C#N)c3)n2)s1 [DMX-30] as the compound, how does the IC50 (IKKε) read?
Answer: The IC50 was 300 to 9000 nM.

Question: Cn1cc(Nc2nccc(-c3ccc(N4CCC(C(N)=O)CC4)c(C#N)c3)n2)cn1 [DMX-75] was tested. Which IC50 (TBK-1) did it give?
Answer: The IC50 was 30 to 300 nM.

Question: What about the IC50 (IKKε) of the same compound?
Answer: The IC50 was less than 30 nM.

Question: How did the IC50 (IKKε) turn out when CN1CCN(C(=O)c2cccc(Nc3nccc(-c4ccc(N5CCCC5)c(C#N)c4)n3)c2)CC1 [DMX-43] was run?
Answer: The IC50 was less than 30 nM.

Question: How did the IC50 (IKKε) turn out when N#Cc1cc(-c2ccnc(Nc3ccncc3)n2)ccc1N1CCCC1 [DMX-12] was run?
Answer: The IC50 was 300 to 9000 nM.

Question: Cn1cncc1Nc1nccc(-c2ccc(N3CCCC3)c(C#N)c2)n1 [DMX-60] was tested. Which IC50 (TBK-1) did it give?
Answer: The IC50 was 30 to 300 nM.

Question: And the IC50 (IKKε)?
Answer: The IC50 was 30 to 300 nM.

Question: Which results are given for CN1CCC(Nc2ccc(Nc3nccc(-c4ccc(N5CCC(F)(F)C5)c(C#N)c4)n3)cn2)CC1 [DMX-80]?
Answer: IC50 (TBK-1): < 30 nM; IC50 (IKKε): < 30 nM

Question: What does the source list for Cc1cc(C(N)=O)ccc1Nc1nccc(-c2ccc(N3CCCC3)c(C#N)c2)n1 [DMX-21]?
Answer: IC50 (TBK-1): 30 to 300 nM; IC50 (IKKε): 30 to 300 nM

Question: For CC(=O)Nc1ccc(Nc2nccc(-c3ccc(N4CCCC4)c(C#N)c3)n2)cn1 [DMX-15], which IC50 (TBK-1) is on record?
Answer: Its IC50 is less than 30 nM.

Question: And the IC50 (IKKε)?
Answer: Its IC50 is less than 30 nM.

Question: How did the IC50 (TBK-1) turn out when CN(C)CCNc1ccc(Nc2nccc(-c3ccc(N4CCC[C@@H]4C(N)=O)c(C#N)c3)n2)cn1 [DMX-72] was run?
Answer: Its IC50 is 30 to 300 nM.

Question: What about the IC50 (IKKε) of the same compound?
Answer: Its IC50 is 30 to 300 nM.

Question: Which IC50 (IKKε) does the source give for COc1cccc(Nc2nccc(-c3ccc(N4CCCC4)c(C#N)c3)n2)c1 [DMX-5] here?
Answer: Its IC50 is less than 30 nM.

Question: Which results are given for CC(=O)Nc1ccc(Nc2nccc(-c3ccc(N4CCC[C@H]4C(N)=O)c(C#N)c3)n2)cn1 [DMX-70]?
Answer: IC50 (TBK-1): 30 to 300 nM; IC50 (IKKε): 30 to 300 nM

Question: N#Cc1cc(-c2ccnc(Nc3cccc(C(F)(F)F)c3)n2)ccc1N1CCCC1 [DMX-2] was tested. Which IC50 (IKKε) did it give?
Answer: The IC50 was 300 to 9000 nM.

Question: How did the IC50 (IKKε) turn out when N#Cc1cc(-c2ccnc(Nc3nc(C(N)=O)co3)n2)ccc1N1CCCC1 [DMX-39] was run?
Answer: The IC50 was 300 to 9000 nM.

Question: For COc1ccc(Nc2nccc(-c3ccc(N4CCCC4)c(C#N)c3)n2)cc1 [DMX-6], which IC50 (IKKε) is on record?
Answer: Its IC50 is less than 30 nM.

Question: With N#Cc1cc(-c2ccnc(Nc3cccnc3)n2)ccc1N1CCCC1 [DMX-18] as the compound, how does the IC50 (IKKε) read?
Answer: The IC50 was less than 30 nM.

Question: How did the IC50 (IKKε) turn out when Cc1csc(Nc2nccc(-c3ccc(N4CCCC4)c(C#N)c3)n2)n1 [DMX-32] was run?
Answer: The IC50 was 300 to 9000 nM.

Question: With Cn1nc(C(N)=O)cc1Nc1nccc(-c2ccc(N3CCCC3)c(C#N)c2)n1 [DMX-41] as the compound, how does the IC50 (IKKε) read?
Answer: The IC50 was 30 to 300 nM.

Question: With N#Cc1cc(-c2ccnc(Nc3ccccn3)n2)ccc1N1CCCC1 [DMX-13] as the compound, how does the IC50 (IKKε) read?
Answer: Its IC50 is 300 to 9000 nM.

Question: Which IC50 (IKKε) does the source give for N#Cc1cc(-c2ccnc(Nc3ccc(F)cc3)n2)ccc1N1CCCC1 [DMX-4] here?
Answer: The IC50 was 30 to 300 nM.

Question: With N#Cc1cc(-c2ccnc(Nc3ccccc3)n2)ccc1N1CCCC1 [DMX-11] as the compound, how does the IC50 (IKKε) read?
Answer: The IC50 was 300 to 9000 nM.

Question: How did the IC50 (IKKε) turn out when N#Cc1cc(-c2ccnc(Nc3cccc(C(=O)O)c3)n2)ccc1N1CCCC1 [DMX-42] was run?
Answer: The IC50 was less than 30 nM.

Question: Which IC50 (IKKε) does the source give for Cc1cc(Nc2nccc(-c3ccc(N4CCCC4)c(C#N)c3)n2)no1 [DMX-25] here?
Answer: Its IC50 is 300 to 9000 nM.

Question: With N#Cc1cc(-c2ccnc(Nc3cccc(F)c3)n2)ccc1N1CCCC1 [DMX-3] as the compound, how does the IC50 (IKKε) read?
Answer: The IC50 was 30 to 300 nM.

Question: For CN1CCC(NC(=O)c2cccc(Nc3nccc(-c4ccc(N5CCCC5)c(C#N)c4)n3)c2)CC1 [DMX-44], which IC50 (IKKε) is on record?
Answer: The IC50 was less than 30 nM.
